# ChEMBL document CHEMBL5608205, “Design, synthesis and biological evaluation of novel SIRT3 inhibitors targeting both NAD+ and substrate binding sites for the treatment of acute myeloid leukemia” (Eur J Med Chem, 2024)
# How the values were obtained:
# [1] = test system: MOLM-13; assay: cells; conditions: Homo sapiens, MOLM-13, 24 h
# [2] = test system: HL-60; assay: cells; conditions: Homo sapiens, HL-60, 24 h
# [3] = test system: MV4-11; assay: cells; conditions: Homo sapiens, MV4-11, 24 h
# [4] = molecular target: T1, NAD-dependent protein deacetylase sirtuin-3, mitochondrial (Homo sapiens, UniProt Q9NTG7); assay: Inhibition of wild type C-terminal human SIRT3 (118 to […] residues) expressed in Escherichia coli strain BL21DE3 Rosetta2 using Fluor de lys as substrate incubated for 30 mins by fluorescence based analysis
# T1 sequence (Q9NTG7 whole entry): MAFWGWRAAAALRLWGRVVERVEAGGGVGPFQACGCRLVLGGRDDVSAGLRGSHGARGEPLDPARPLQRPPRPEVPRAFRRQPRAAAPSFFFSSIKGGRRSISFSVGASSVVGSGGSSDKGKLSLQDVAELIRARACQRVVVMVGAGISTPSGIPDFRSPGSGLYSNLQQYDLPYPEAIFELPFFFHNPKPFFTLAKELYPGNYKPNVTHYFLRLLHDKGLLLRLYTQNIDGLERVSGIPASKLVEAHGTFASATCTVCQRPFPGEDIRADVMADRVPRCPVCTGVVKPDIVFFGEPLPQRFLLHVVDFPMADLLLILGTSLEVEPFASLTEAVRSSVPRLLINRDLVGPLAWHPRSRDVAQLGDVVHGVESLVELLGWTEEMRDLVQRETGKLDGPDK
# [5] = molecular target: T1, NAD-dependent protein deacetylase sirtuin-3, mitochondrial; assay: Inhibition of recombinant human SIRT3 using Fluor de lys as substrate incubated for 30 mins by fluorescence based analysis
# [6] = Toxicity in nude mouse assessed as effect on body weight at 5 mg/kg, ip administered daily for upto 14 days; format: organism-based; conditions: in vivo, 336 h, time < 14 day
# [7] = test system: MOLM-13; assay: Induction of apoptosis in human MOLM-13 cells assessed as viable cells at 5 uM incubated for 24 hrs by annexin V/FITC and Propidium Iodide staining based flow cytometry analysis (reference value: 98.1%); format: functional; conditions: read-out: Activity
# [8] = molecular target: T2, NAD-dependent protein deacetylase sirtuin-2 (Homo sapiens, UniProt Q8IXJ6); assay: Inhibition of recombinant human SIRT2 using Fluor de lys as substrate incubated for 30 mins by fluorescence based analysis
# T2 sequence (Q8IXJ6 whole entry): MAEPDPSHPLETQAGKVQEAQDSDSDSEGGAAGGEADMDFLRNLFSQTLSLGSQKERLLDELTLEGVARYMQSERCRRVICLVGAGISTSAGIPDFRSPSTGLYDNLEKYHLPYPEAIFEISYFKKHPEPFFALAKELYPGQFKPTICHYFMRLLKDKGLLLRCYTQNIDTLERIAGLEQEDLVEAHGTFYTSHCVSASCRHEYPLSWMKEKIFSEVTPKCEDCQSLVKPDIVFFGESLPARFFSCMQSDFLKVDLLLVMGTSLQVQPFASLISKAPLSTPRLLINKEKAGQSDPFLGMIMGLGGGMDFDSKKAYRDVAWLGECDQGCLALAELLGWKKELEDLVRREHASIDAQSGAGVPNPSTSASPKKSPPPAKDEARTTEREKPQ
# [9] = Toxicity in nude mouse assessed as effect on lung at 5 mg/kg, ip administered daily for upto 14 days; format: organism-based; conditions: in vivo, 336 h, time < 14 day
# [10] = Toxicity in nude mouse assessed as effect on brain at 5 mg/kg, ip administered daily for upto 14 days; format: organism-based; conditions: in vivo, 336 h, time < 14 day
# [11] = test system: HL-60; assay: Induction of apoptosis in human HL-60 cells assessed as viable cells at 5 uM incubated for 24 hrs by annexin V/FITC and Propidium Iodide staining based flow cytometry analysis (reference value: 98.9%); format: functional; conditions: read-out: Activity
# [12] = Toxicity in nude mouse assessed as effect on spleen at 5 mg/kg, ip administered daily for upto 14 days; format: organism-based; conditions: in vivo, 336 h, time < 14 day
# [13] = test system: MV4-11; assay: Induction of apoptosis in human MV4-11 cells assessed as viable cells at 5 uM incubated for 24 hrs by annexin V/FITC and Propidium Iodide staining based flow cytometry analysis (reference value: 95.4%); format: functional; conditions: read-out: Activity
# [14] = test system: MV4-11; assay: Induction of apoptosis in human MV4-11 cells assessed as viable cells at […] incubated for 24 hrs by annexin V/FITC and Propidium Iodide staining based flow cytometry analysis (reference value: 95.4%); format: functional; conditions: dose 2.5 µM, read-out: Activity
# [15] = test system: MOLM-13; assay: Induction of apoptosis in human MOLM-13 cells assessed as viable cells at 10 uM incubated for 24 hrs by annexin V/FITC and Propidium Iodide staining based flow cytometry analysis (reference value: 98.1%); format: functional; conditions: read-out: Activity
# [16] = test system: HL-60; assay: Induction of apoptosis in human HL-60 cells assessed as viable cells at 10 uM incubated for 24 hrs by annexin V/FITC and Propidium Iodide staining based flow cytometry analysis (reference value: 98.9%); format: functional; conditions: read-out: Activity
# [17] = Toxicity in nude mouse assessed as effect on heart at 5 mg/kg, ip administered daily for upto 14 days; format: organism-based; conditions: in vivo, 336 h, time < 14 day
# [18] = Toxicity in nude mouse assessed as effect on liver at 5 mg/kg, ip administered daily for upto 14 days; format: organism-based; conditions: in vivo, 336 h, time < 14 day
# [19] = test system: HL-60; assay: Induction of apoptosis in human HL-60 cells assessed as viable cells at […] incubated for 24 hrs by annexin V/FITC and Propidium Iodide staining based flow cytometry analysis (reference value: 98.9%); format: functional; conditions: dose 2.5 µM, read-out: Activity
# [20] = test system: MV4-11; assay: Induction of apoptosis in human MV4-11 cells assessed as viable cells at 10 uM incubated for 24 hrs by annexin V/FITC and Propidium Iodide staining based flow cytometry analysis (reference value: 95.4%); format: functional; conditions: read-out: Activity
# [21] = test system: MOLM-13; assay: Induction of apoptosis in human MOLM-13 cells assessed as viable cells at […] incubated for 24 hrs by annexin V/FITC and Propidium Iodide staining based flow cytometry analysis (reference value: 98.1%); format: functional; conditions: dose 2.5 µM, read-out: Activity
# [22] = Toxicity in nude mouse assessed as effect on kidney at 5 mg/kg, ip administered daily for upto 14 days; format: organism-based; conditions: in vivo, 336 h, time < 14 day
# [23] = molecular target: T2, NAD-dependent protein deacetylase sirtuin-2; assay: Inhibition of SIRT2 (unknown origin)
Structure (SMILES),IC50 [1] [µM],IC50 [2] [µM],IC50 [3] [µM],also measured
NC(=O)c1cc2ncnc(N3CCN(C(=O)Nc4ccc(F)cc4F)CC3)c2s1,33.1,> 50,> 50,
NC(=O)c1cc2ncnc(N3[C@@H]4C[C@H]3CN(C(=O)Nc3ccc(F)cc3F)C4)c2s1,> 50,> 50,> 50,
Oc1cc(O)cc(/C=C/c2ccc(Br)cc2)c1,,,,IC50 [4]: 143 µM
NC(=O)c1cc2ncnc(N3[C@@H]4C[C@H]3CN(C(=O)Nc3cc(C(F)(F)F)cc(C(F)(F)F)c3)C4)c2s1,41.5,31.5,26.3,
NC(=O)c1cc2ncnc(N3[C@@H]4C[C@H]3CN(C(=O)Nc3ccc(Cl)c(Cl)c3)C4)c2s1,25,27.1,19.9,
Cc1ccc(NC(=O)N2C[C@H]3C[C@@H](C2)N3c2ncnc3cc(C(N)=O)sc23)cc1,> 50,> 50,> 50,
C#Cc1cccc(NC(=O)N2C[C@H]3C[C@@H](C2)N3c2ncnc3cc(C(N)=O)sc23)c1,33.2,38.2,28.7,
NC(=O)c1cc2ncnc(N3CCN(C(=O)Nc4ccccc4F)CC3)c2s1,39.8,> 50,> 50,
NC(=O)c1cc2ncnc(N3[C@@H]4C[C@H]3CN(C(=O)Nc3ccccc3Cl)C4)c2s1,> 50,> 50,> 50,
NC(=O)c1cc2ncnc(N3[C@@H]4CC[C@H]3CN(C(=O)Nc3ccc(C(F)(F)F)cc3)C4)c2s1,,,,Activity [6]: Non-Toxic; viability at 5 µM [7]: 67.5%; IC50 [8]: 0.474 µM; Activity [9]: Non-Toxic; Activity [10]: Non-Toxic; viability at 5 µM [11]: 78.2%; Activity [12]: Non-Toxic; viability at 5 µM [13]: 78.2%; viability at […] [14]: 85.7%; viability at 10 µM [15]: 62.5%; viability at 10 µM [16]: 73%; Activity [17]: Non-Toxic; Activity [18]: Non-Toxic; viability at […] [19]: 84.5%; viability at 10 µM [20]: 65%; viability at […] [21]: 90.4%; Activity [22]: Non-Toxic
NC(=O)c1cc2ncnc(N3[C@@H]4C[C@H]3CN(C(=O)Nc3cccc(Cl)c3)C4)c2s1,36.1,> 50,34.1,
CCNC(=S)c1ccc(C(=O)NCCC2CCN(c3ncnc4cc(C(N)=O)sc34)CC2)s1,,,,IC50 [23]: 0.0027 µM
NC(=O)c1cc2ncnc(N3[C@@H]4C[C@H]3CN(C(=O)Nc3ccc(C(F)(F)F)cc3)C4)c2s1,38.3,36.6,26.3,

# The next lines start with results.
IC50 [1] [µM],IC50 [2] [µM],IC50 [3] [µM],Structure (SMILES),also measured
10.6,17.4,14.7,NC(=O)c1cc2ncnc(N3[C@@H]4CC[C@H]3CN(C(=O)Nc3ccc5ccccc5c3)C4)c2s1,
3.47,5.45,7.28,NC(=O)c1cc2ncnc(N3CCN(C(=O)Nc4cc(Cl)cc(Cl)c4)CC3)c2s1,
17.7,37.1,33.3,NC(=O)c1cc2ncnc(N3CCN(C(=O)NC4CCCCC4)CC3)c2s1,
6.27,36.3,25.7,Cc1ccc(NC(=O)N2CCN(c3ncnc4cc(C(N)=O)sc34)CC2)cc1,
4.73,36.9,18.1,Cc1ccc(NC(=O)N2C[C@H]3CC[C@@H](C2)N3c2ncnc3cc(C(N)=O)sc23)cc1,
12.6,> 50,27.8,c1cncc(-c2cnn[nH]2)c1,
2.35,1.15,5.09,NC(=O)c1cc2ncnc(N3[C@@H]4CC[C@H]3CN(C(=O)Nc3ccc(Cl)c(Cl)c3)C4)c2s1,IC50 [5]: 0.125 µM
4.26,36.3,12.3,NC(=O)c1cc2ncnc(N3CCN(C(=O)Nc4ccc(Cl)cc4)CC3)c2s1,
